Tests used:
glucocorticoid receptor = glucocorticoid receptor (Homo sapiens (Human), UniProt P04150); assay: PolarScreen Glucocorticoid Receptor Competitor Assay (GR binding); conditions: fluormone GS red, GR full length protein; read-out: GR Bind IC50
Description: The potency of binding to glucocorticoid receptor by small molecule compounds was measured with the PolarScreen™ Glucocorticoid Receptor Competitor Assay Kit, Red (Life Technology, Catalog #A15898) according to the procedure in the kit. In brief, after compounds were diluted and transferred into assay plates, the fluormone GS red and GR full length protein were subsequently added into the assay plates, along with the positive and negative controls. The samples were mixed on a shaker for 1 minute and then the plates were incubated at room temperature for 2-4 hours with minimal light exposure. The plates were read with an Envision and the relative fluorescent signals were calculated. The data were plotted in GraphPad Prism and the EC50 values were calculated with non-linear regression curve fit of the data in GraphPad Prism.

GILZ gene = GILZ gene assay (qPCR, HUT78 / 786-O cells); assay type: cell-based; conditions: for EC50: read-out: GILZ EC50
Description: GILZ gene assays were conducted as follows. HUT78 cells were cultured in IMEM plus 20% heat inactivated FBS and cell density was maintained between 0.1 to 1.2 million/mL. 786-O cells were cultured in RPMI plus 10% heat inactivated FBS. Actively growing cells were harvested and resuspended in HBSS with 2% FBS at 1.1 million cells per mL then dispensed to 384-well V-bottom plates at 45 μL per well. Serially diluted ADC solution was added to the cell plate (5 μL per well) and mixed for 2 min. Cells were then cultured at 37° C., at 5% CO2 for a designated time before supernatant was removed. Cells were harvested in lysis buffer from the Cells-to-Ct kit (40 μL, Life Technologies, 4391851C) following the supplier's protocol and mixed for 10 min followed by addition of 5 μL per well of stop solution from the kit. cDNA was synthesized with a reverse transcription kit (Life Technologies, 4391852C) follow by qPCR using the TaqMan gene expression master mix (Life Technologies, 4369016) with GILZ gene assay (Life Technologies, Hs00608272_m1) and GAPDH assay (Hs2758991_g1) in a duplex format with 3-4 technical replicates.

MDCKII cells = assay: Apparent permeability in MDCKII cells; assay type: in vitro ADME; conditions: 1 μM, t=3 hr, average of A to B and B to A Papp
Description: Determination of apparent permeability was as follows. MDCKII cells (kindly provided by the Netherlands Cancer Institute, under a licensing agreement) were seeded on to 96-well transwell culture plates (Millipore Corp, Billerica, Mass.) and used in experiments after five days in culture. […] Substrate solution (150 μL) was added to either the apical (A) or the basolateral (B) compartment of the culture plate, and buffer (150 μL; HBSS, 10 mM HEPES, pH 7.4) with 10 μM cyclosporine A was added to the compartment opposite to that containing the substrate. At t=3 hr, 50 μL samples were removed from both sides of monolayers dosed with test compound and placed in 96 well plates, 50 μL internal standard (1 μM labetolol) and 100 μL HBSS was added to the samples. Samples were analyzed by LC/MS/MS using an Applied Biosystems SCIEX API 5000 triple quadruple mass spectrometer (Concord, ON, Canada) with a TurbolonSpray ion source in the positive ion mode. A Thermo Scientific Transcend LX-2 system (Franklin, Mass.) was coupled to the API 5000 with a flow rate of 800 μL/min to direct sample into the mass spectrometer.
Papp was expressed as 10^−6 cm/s.

glucocorticoid receptor, sequence (P04150 whole entry): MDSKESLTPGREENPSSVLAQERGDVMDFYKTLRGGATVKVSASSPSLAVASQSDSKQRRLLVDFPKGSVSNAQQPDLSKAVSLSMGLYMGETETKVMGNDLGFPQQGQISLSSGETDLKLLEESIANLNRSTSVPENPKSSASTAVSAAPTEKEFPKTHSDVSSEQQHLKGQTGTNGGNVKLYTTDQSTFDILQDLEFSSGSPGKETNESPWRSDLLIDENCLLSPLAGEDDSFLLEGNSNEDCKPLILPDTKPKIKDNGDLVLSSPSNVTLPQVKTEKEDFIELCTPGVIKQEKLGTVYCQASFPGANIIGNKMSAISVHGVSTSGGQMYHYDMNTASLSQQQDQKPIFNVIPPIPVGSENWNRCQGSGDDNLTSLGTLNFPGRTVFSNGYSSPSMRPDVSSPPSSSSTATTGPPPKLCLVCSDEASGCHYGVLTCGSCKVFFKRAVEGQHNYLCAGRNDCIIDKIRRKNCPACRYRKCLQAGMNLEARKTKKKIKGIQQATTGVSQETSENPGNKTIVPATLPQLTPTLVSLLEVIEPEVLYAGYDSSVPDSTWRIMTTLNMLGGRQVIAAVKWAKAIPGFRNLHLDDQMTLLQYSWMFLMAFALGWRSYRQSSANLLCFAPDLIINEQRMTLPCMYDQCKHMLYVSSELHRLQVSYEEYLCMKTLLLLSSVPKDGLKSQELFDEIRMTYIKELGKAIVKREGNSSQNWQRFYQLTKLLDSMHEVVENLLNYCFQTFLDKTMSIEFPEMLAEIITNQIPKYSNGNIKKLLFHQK

Compound | IC50 (glucocorticoid receptor) | GILZ Max (GILZ gene; at 10 uM) | EC50 (GILZ gene) | MDCK Permeability (cm × 10−6/sec) (MDCKII cells) | GILZ Max (GILZ gene; concentration not given) | GILZ Max (GILZ gene; at 100 nM)
C[C@@H]1C[C@H]2[C@@H]3C[C@H](F)C4=CC(=O)C=C[C@]4(C)[C@@]3(F)[C@@H](O)C[C@]2(C)[C@@]1(OC(=O)CCCCCP(=O)(O)O)C(=O)SCF [Compound 19, (6-(((6S,8S,9R,10S,11S,13S,14S,16R,17R)-6,9-difluoro-17-(((fluoromethyl)thio)carbonyl)-11-hydroxy-10,13,16-trimethyl-3-oxo-6,7,8,9,10,11,12,13,14,15,16,17-dodecahydro-3H-cyclopenta[a]phenanthren-17-yl)oxy)-6-oxohexyl)phosphonic acid] | 0.14 nM | 88% (at | 1290 nM | – | – | –
C[C@@H]1C[C@H]2[C@@H]3C[C@H](F)C4=CC(=O)C=C[C@]4(C)[C@@]3(F)[C@@H](O)C[C@]2(C)[C@@]1(O)C(=O)SCCCCCCCCCCP(=O)(O)O [Compound 8] | 0.25 nM | 66% (at | 970 nM | 2.8 cm × 10−6/sec | – | –
CCCC1O[C@@H]2C[C@H]3[C@@H]4CCC5=Cc6c(cnn6-c6ccc(OCCCCCCCCCP(=O)(O)O)cc6)C[C@]5(C)[C@H]4[C@@H](O)C[C@]3(C)[C@]2(C(=O)CO)O1 (some centres unmarked) [Compound 32] | 115 nM | 86% (at | 4150 nM | – | – | –
CCC(=O)O[C@]1(C(=O)SCCCP(=O)(O)O)[C@H](C)C[C@H]2[C@@H]3C[C@H](F)C4=CC(=O)C=C[C@]4(C)[C@@]3(F)[C@@H](O)C[C@@]21C [Compound 14] | 18.1 nM | 15% (at | > 10000 nM | – | – | –
C[C@@H]1C[C@H]2[C@@H]3CCC4=CC(=O)C=C[C@]4(C)[C@@]3(F)[C@@H](O)C[C@]2(C)[C@@]1(O)C(=O)CO [Dexamethasone, reference compound] | – | – | 3.7 nM | – | 100% | –
C[C@@H]1C[C@H]2[C@@H]3C[C@H](F)C4=CC(=O)C=C[C@]4(C)[C@@]3(F)[C@@H](O)C[C@]2(C)[C@@]1(O)C(=O)SCCCCCCP(=O)(O)O [Compound 10] | 1.99 nM | 17.3% | > 10000 nM | 1.9 cm × 10−6/sec | – | –
C[C@@H]1C[C@H]2[C@@H]3C[C@H](F)C4=CC(=O)C=C[C@]4(C)[C@@]3(F)[C@@H](O)C[C@]2(C)[C@@]1(O)C(=O)SCCP(=O)(O)O [Compound 11] | – | 81% (at | 2860 nM | – | – | –
C[C@@H]1C[C@H]2[C@@H]3C[C@H](F)C4=CC(=O)C=C[C@]4(C)[C@@]3(F)[C@@H](O)C[C@]2(C)[C@@]1(O)C(=O)SCCCCP(=O)(O)O [Compound 5] | 160 nM | – | > 10000 nM | 1.84 cm × 10−6/sec | – | 24% (at
CCC(=O)O[C@]1(C(=O)SCCOCCOCCP(=O)(O)O)[C@H](C)C[C@H]2[C@@H]3C[C@H](F)C4=CC(=O)C=C[C@]4(C)[C@@]3(F)[C@@H](O)C[C@@]21C [Compound 6] | 0.32 nM | 40% (at | > 10000 nM | – | – | –
CCCC1O[C@@H]2C[C@H]3[C@@H]4CCC5=Cc6c(cnn6-c6ccc(OCCCCP(=O)(O)O)cc6)C[C@]5(C)[C@H]4[C@@H](O)C[C@]3(C)[C@]2(C(=O)CO)O1 (some centres unmarked) [Compound 30] | 2.4 nM | 61% (at | 3010 nM | 1.9 cm × 10−6/sec | – | –
CCC(=O)O[C@]1(C(=O)SCCP(=O)(O)O)[C@H](C)C[C@H]2[C@@H]3C[C@H](F)C4=CC(=O)C=C[C@]4(C)[C@@]3(F)[C@@H](O)C[C@@]21C [Compound 12] | 162 nM | 36% (at | 6780 nM | – | – | –
CCCC1O[C@@H]2C[C@H]3[C@@H]4CCC5=Cc6c(cnn6-c6ccc(OCCCCCCP(=O)(O)O)cc6)C[C@]5(C)[C@H]4[C@@H](O)C[C@]3(C)[C@]2(C(=O)CO)O1 (some centres unmarked) [Compound 31] | 3.9 nM | 47% (at | 4180 nM | 4.1 cm × 10−6/sec | – | –
CCCC1O[C@@H]2C[C@H]3[C@@H]4CCC5=Cc6c(cnn6-c6cccc(OCCCCCCCCCP(=O)(O)O)c6)C[C@]5(C)[C@H]4[C@@H](O)C[C@]3(C)[C@]2(C(=O)CO)O1 (some centres unmarked) [Compound 29] | 24.2 nM | 96% (at | 558 nM | – | – | –
CCC(=O)O[C@]1(C(=O)SCCCCCCP(=O)(O)O)[C@H](C)C[C@H]2[C@@H]3C[C@H](F)C4=CC(=O)C=C[C@]4(C)[C@@]3(F)[C@@H](O)C[C@@]21C [Compound 7] | 0.45 nM | 64% (at | 6450 nM | 2 cm × 10−6/sec | – | –
CCCC1O[C@@H]2C[C@H]3[C@@H]4CCC5=Cc6c(cnn6-c6cccc(OCCCCP(=O)(O)O)c6)C[C@]5(C)[C@H]4[C@@H](O)C[C@]3(C)[C@]2(C(=O)CO)O1 (some centres unmarked) [Compound 28] | 4.1 nM | 101% (at | 1270 nM | 1.6 cm × 10−6/sec | – | –
(6-(3-((3aR,4aS,4bS,11aR,11bS,12S,13aS,13bS)-12-hydroxy-13b-(2-hydroxyacetyl)-11a,13a-dimethyl-2-propyl-4,4a,5,6,11,11a,11b,12,13,13a-decahydro-[1,3]dioxolo[4″,5″:3′,4′]cyclopenta[1′,2′:5,6]naphtho[1,2-f]indazol-8 (3aH,4bH,13bH)-yl)phenoxy)hexyl)phosphonic acid [Compound 27] | – | 80% (at | 2760 nM | – | – | –
CCCC1O[C@@H]2C[C@H]3[C@@H]4CCC5=CC(=O)C=C[C@]5(C)[C@H]4[C@@H](O)C[C@]3(C)[C@]2(C(=O)CO)O1 (some centres unmarked) [Budesonide, reference compound] | – | – | 1 nM | 31.6 cm × 10−6/sec | 100% | –
C[C@@H]1C[C@H]2[C@@H]3C[C@H](F)C4=CC(=O)C=C[C@]4(C)[C@@]3(F)[C@@H](O)C[C@]2(C)[C@@]1(O)C(=O)SCCOCCOCCP(=O)(O)O [Compound 9] | 1.67 nM | 14.5% | > 10000 nM | – | – | –
CCC(=O)O[C@]1(C(=O)SCCCCP(=O)(O)O)[C@H](C)C[C@H]2[C@@H]3C[C@H](F)C4=CC(=O)C=C[C@]4(C)[C@@]3(F)[C@@H](O)C[C@@]21C [Compound 4] | 0.71 nM | – | > 100 nM | 1.72 cm × 10−6/sec | – | <10% (at
C[C@@H]1C[C@H]2[C@@H]3C[C@H](F)C4=CC(=O)C=C[C@]4(C)[C@@]3(F)[C@@H](O)C[C@]2(C)[C@@]1(O)C(=O)SCCCP(=O)(O)O [Compound 13] | 1220 nM | 24% (at | > 10000 nM | – | – | –
